# According to patent US9023853B2, “Janus kinase 2 (JAK2) inhibitor for the treatment of lupus” (Cephalon, Inc., priority 2010, dated 2015):
# Several values for one entry are separate records, joined by “and”; a condition that tells them apart may be missing. Equal entries are not always repeated.
# What was measured:
# Type in all cases: in vivo, mouse
# MRL/lpr mice = assay: Renal histopathology kidney IC-GN scoring in MRL/lpr mice; details: for Glomerular Cellularity / Glomerular Necrosis / Glomerulosclerosis / Interstitial Fibrosis / Interstitial Inflitration / Tubular Atrophy / Vasculitis: MRL/lpr kidney score (grade 0-5), mean
# Procedure: Kidney stains used for histological analyses included hematoxylin and eosin (H&E), Periodic Acid Schiff (PAS) and Trichrome stains (Wistar Institute, Philadelphia, Pa.). All 3 stained sections were used by the pathologist for scoring purposes. All histological scoring was performed blinded and by an independent board certified veterinary medical pathologist (Julie […]; University of Pennsylvania). Multiple stains were used to determine score values. Images in FIGS. 8, 19 and 20 show worst affected area of section selected blindly by the pathologist. Kidney IC-GN Scoring Method (Smith, Dong et al. 2007): 1. Glomerular cellularity-Score 1-5: Null, low, moderate, high, severe […] Glomerular necrosis-Score 1-5: Null, low, moderate, high, severe […] Glomerulosclerosis-Score 1-5: Null, low, moderate, high, severe […] Null, low, moderate, high, severe 5. […] Null, low, moderate, high, severe 6. […] Null, low, moderate, high, severe 7. […] Null, low, moderate, high, severe Specific Pathologist Definitions: • Necrosis was defined by the presence of nuclear debris/pyknosis within the glomerular tuft indicative of “necrosis.” In many samples, this was a very mild, rare finding within only a very few segments of the glomerular tuft. Also considered effacement of the glomerular tuft by PAS positive, Trichrome negative material necrosis. • Glomerular sclerosis was defined by increased fibroplasia or fibrosis within the glomerular tuft or capsule. […] Most of the vascular changes were mild and could be considered “arteriosclerosis” characterized by proliferation of the smooth muscle cells, and hyalinization of the extracellular matrix. This change may reflect hypertension secondary to glomerular pathology. In very few animals was there overt “vasculitis.” Most inflammatory changes were within the walls of the blood vessels, with little to no damage to the endothelium, and no overt hemorrhage/fibrin leakage. Many also have perivascular rims of fibroblasts. […] Mice were tracked on an individual basis.
# anti-dsDNA antibodies = assay: Serum anti-dsDNA ANA ELISA in NZM mice; details: for A: Anti-dsDNA IgG, MEAN: NZM group mean; for A: Anti-dsDNA IgG: NZM individual mouse; for serum anti-dsDNA ANAs decrease compared to vehicle: NZM mice
# Source text: (§1) The measurement of anti-dsDNA and anti-Smith antigen antibodies was done by an in-house generated custom ELISA assay. Chromatin coated plates were purchased from Inova Diagnostics, Inc. Purified bovine thymus dsDNA (Sigma, St. Louis, […].) or purified bovine Smith antigen (GenWay, San Diego, Calif.) were used as coating antigen for the detection of anti-dsDNA and anti-Smith Ag antibodies respectively. Coated plates were washed with Borate Sulfate Saline (BSS) and blocked with BSS containing 1% Bovine Serum Albumin (BSA) and 0.1% Tween-20 detergent. Standard curves were generated using mouse anti-chromatin antibody (Sigma, 2B1) or 25 week old MRL/lpr serum. Mouse anti-dsDNA antibody (Abcam, Cambridge, Mass.), or mouse anti-Smith antigen antibody (Abcam) were used as standards for each assay. Secondary antibody was purchased from Abcam (goat anti-mouse pAb-HRP), the substrate was purchased from Rockland (Gilbertsville, Pa.) (TMB), and stop reaction buffer was generated using 1 mL of concentrated sulfuric acid into 20 mL of dH2O. Developed plates were read using a Victor-X4 spectrophotometer reading at […] with a reference wavelength of 570 nm. For all ANA ELISA assays, values below the limit of detection set by the lowest point along the standard or set by the manufacturer were considered out of range and were not estimated, but assumed the lowest point along the standard curve for that particular assay.
# Age mated, female, NZM or NZW/LacJ, mice were matured for the study of lupus nephritis for a total of 7 months or 210 days at which time urine was collected for proteinuria detection. Mice with 0.5-1.0 mg/ml of urine protein as determined by an optical density-based total protein precipitation assay and cross-checked for 30-300 mg/dl of protein as determined by a stick assay were considered proteinuria positive and selected for study entry. Groups were normalized to contain a Gaussian distribution of proteinuria positive animals (i.e., ⅓ low proteinuria, ⅓ medium, ⅓ high) then randomized between groups before ear marking and taking baseline measures including urine and serum collections. A total of five mice from the total population were randomly selected for baseline kidney histology evaluation. Treatments and tests for each group are as described in FIG. 12. Briefly, with a minimum of 10 mice per group, COMPOUND A was administered at 100 mg/kg or 55 mg/kg, both twice a day and orally. […] Vehicle included 3% DMSO, 10% Solutol and 87% PBS. […] End-stage lupus nephritis was evaluated by histopathology and scored by a board certified pathologist for the assessment of total renal damage in diseased animals using the scoring method described by Smith et al (Smith, Dong et al. 2007). […] Day-98 or “end of treatment/study” represents 310 days of age for the NZM animals.
# [1] = tested on: anti-Smith antigen antibodies; assay: Serum anti-Smith antigen ANA ELISA in NZM mice; details: p<0.05
# Source text: as §1, with “Secondary antibody was purchased from Abcam (goat anti-mouse pAb-HRP), the substrate was purchased from Rockland (Gilbertsville, Pa.) (TMB), and stop reaction buffer was generated using 1 mL of concentrated sulfuric acid into 20 mL of dH2O.” left out, “For all ANA ELISA assays, values below the limit of detection set by the lowest point along the standard or set by the manufacturer were considered out of range and were not estimated, but assumed the lowest point along the standard curve for that particular assay.” left out
# Age mated, female, NZM or NZW/LacJ, mice were matured for the study of lupus nephritis for a total of 7 months or 210 days at which time urine was collected for proteinuria detection. Mice with 0.5-1.0 mg/ml of urine protein as determined by an optical density-based total protein precipitation assay and cross-checked for 30-300 mg/dl of protein as determined by a stick assay were considered proteinuria positive and selected for study entry. […]
# NZM mice = assay: Lung histopathology in NZM mice
# Procedure: For histological analyses, the left kidney and lung (NZM model only) from each animal was removed and fixed in 10% buffered neutral 10% formalin (EMD) for 48 hours on an orbital rocker at 25° C., then washed overnight with running dH2O and stored in 70% ethanol at 4° C. until ready to be processed. Kidney stains used for histological analyses included hematoxylin and eosin (H&E), Periodic Acid Schiff (PAS) and Trichrome stains (Wistar Institute, Philadelphia, Pa.). All 3 stained sections were used by the pathologist for scoring purposes. All histological scoring was performed blinded and by an independent board certified veterinary medical pathologist (Julie Engiles, VMD, DACVP; University of Pennsylvania). […]
# Age mated, female, NZM or NZW/LacJ, mice were matured for the study of lupus nephritis for a total of 7 months or 210 days at which time urine was collected for proteinuria detection. Mice with 0.5-1.0 mg/ml of urine protein as determined by an optical density-based total protein precipitation assay and cross-checked for 30-300 mg/dl of protein as determined by a stick assay were considered proteinuria positive and selected for study entry. […] End-stage lupus nephritis was evaluated by histopathology and scored by a board certified pathologist for the assessment of total renal damage in diseased animals using the scoring method described by Smith et al (Smith, Dong et al. 2007). […]
# [2] = MRL/lpr mice, 100 mg/kg, p<0.01
compound,measurement,setting,value
"CN1CCN(c2cccc(Nc3nc4c(-c5ccc(S(C)(=O)=O)cc5)cccn4n3)c2)CC1 [COMPOUND A, [8-(4-methanesulfonyl-phenyl)-[1,2,4]triazolo[1,5-a]pyridin-2-yl]-[3-(4-methyl-piperazin-1-yl)-phenyl]-amine]",Glomerular Cellularity,MRL/lpr mice; COMPOUND A 30 mg/kg,2.60
same,Glomerular Necrosis,MRL/lpr mice; COMPOUND A 30 mg/kg,1.80
same,Glomerulosclerosis,MRL/lpr mice; COMPOUND A 30 mg/kg,1.60
same,Interstitial Fibrosis,MRL/lpr mice; COMPOUND A 30 mg/kg,1.60
same,Interstitial Inflitration,MRL/lpr mice; COMPOUND A 30 mg/kg,2.20
same,Tubular Atrophy,MRL/lpr mice; COMPOUND A 30 mg/kg,1.20
same,Vasculitis,MRL/lpr mice; COMPOUND A 30 mg/kg,1.80
same,Glomerular Cellularity,MRL/lpr mice; COMPOUND A 55 mg/kg,3.20
same,Glomerular Necrosis,MRL/lpr mice; COMPOUND A 55 mg/kg,1.80
same,Glomerulosclerosis,MRL/lpr mice; COMPOUND A 55 mg/kg,2.00
same,Interstitial Fibrosis,MRL/lpr mice; COMPOUND A 55 mg/kg,1.20
same,Interstitial Inflitration,MRL/lpr mice; COMPOUND A 55 mg/kg,2.00
same,Tubular Atrophy,MRL/lpr mice; COMPOUND A 55 mg/kg,2.20
same,Vasculitis,MRL/lpr mice; COMPOUND A 55 mg/kg,2.00
same,Glomerular Cellularity,MRL/lpr mice; COMPOUND A 100 mg/kg,2.40
same,Glomerular Necrosis,MRL/lpr mice; COMPOUND A 100 mg/kg,1.8
same,Glomerulosclerosis,MRL/lpr mice; COMPOUND A 100 mg/kg,2.20
same,Interstitial Fibrosis,MRL/lpr mice; COMPOUND A 100 mg/kg,1.40
same,Interstitial Inflitration,MRL/lpr mice; COMPOUND A 100 mg/kg,1.80
same,Tubular Atrophy,MRL/lpr mice; COMPOUND A 100 mg/kg,1.40
same,Vasculitis,MRL/lpr mice; COMPOUND A 100 mg/kg,1.40
same,interstitial infiltration decrease vs vehicle,"MRL/lpr mice; MRL/lpr mice, 55 mg/kg, p<0.05",33.3%
same,glomerular cellularity decrease vs vehicle,MRL/lpr mice; [2],33.3%
same,interstitial infiltration decrease vs vehicle,MRL/lpr mice; [2],40%
same,vasculitis decrease vs vehicle,MRL/lpr mice; [2],46.1%
same,enlarged glomeruli and leukocytic infiltrations in renal sections,"MRL/lpr mice; MRL/lpr mice, COMPOUND A treated animals at EOS, FIG. 8",absent
same,cellular infiltrations/glomerulonephritis and glomerular size in H&E stained renal sections,"MRL/lpr mice; MRL/lpr mice, compared to dexamethasone and vehicle groups, FIG. 8",decreases in both cellular infiltrations/glomerulonephritis and glomerular size
same,"A: Anti-dsDNA IgG, MEAN",anti-dsDNA antibodies; CMPD A 55 mpk bid,16.4
same,"A: Anti-dsDNA IgG, MEAN",anti-dsDNA antibodies; CMPD A 100 mpk bid,14.4
same,A: Anti-dsDNA IgG,"anti-dsDNA antibodies; CMPD A 55 mpk bid, 55 mg/kg",20.6 and 39.4 and 9.4 and 12.6 and 12.7 and 7.5 and 15.2 and 16.7 and 19.3 and 10.8
same,A: Anti-dsDNA IgG,"anti-dsDNA antibodies; CMPD A 100 mpk bid, 100 mg/kg",13.4 and 18.2 and 9.6 and 13.8 and 11.5 and 6.6 and 20.5 and 5.1 and 26.5 and 19.2
same,serum anti-dsDNA ANAs decrease compared to vehicle,"anti-dsDNA antibodies; COMPOUND A 55 mg/kg, over course of disease",67.0%
same,serum anti-dsDNA ANAs decrease compared to vehicle,"anti-dsDNA antibodies; COMPOUND A 100 mg/kg, over course of disease",73.9%
same,anti-smith antigen ANAs,[1]; COMPOUND A treatment,significantly reduced
same,lung infiltrates,"NZM mice; COMPOUND A 55 mg/kg and 100 mg/kg, vs dexamethasone and vehicle",prevented lung infiltrates
"O=P1(N(CCCl)CCCl)NCCCO1 (stereo not shown) [CTX, cyclophosphamide, reference compound]","A: Anti-dsDNA IgG, MEAN",anti-dsDNA antibodies; CTX 50 mpk 1 × wk,30.9
same,A: Anti-dsDNA IgG,anti-dsDNA antibodies; CTX 50 mpk 1 × wk,13.4 and 6.9 and 22.2 and 13.2 and 40.3 and 9.6 and 65.1 and 52.4 and 24.3 and 61.9
same,serum anti-dsDNA ANAs decrease compared to vehicle,anti-dsDNA antibodies; CTX 50 mg/kg once weekly ip,65.3%
same,anti-smith antigen ANAs,[1]; CTX 50 mg/kg once weekly ip,significantly reduced
same,lung infiltrates,NZM mice; CTX 50 mg/kg once weekly ip,prevented lung infiltrates
"C[C@@H]1C[C@H]2[C@@H]3CCC4=CC(=O)C=C[C@]4(C)[C@@]3(F)[C@@H](O)C[C@]2(C)[C@@]1(O)C(=O)CO [Dex, dexamethasone, reference compound]",Glomerular Cellularity,MRL/lpr mice; Dex 1.5 mg/kg,3.00
same,Glomerular Necrosis,MRL/lpr mice; Dex 1.5 mg/kg,2.00
same,Glomerulosclerosis,MRL/lpr mice; Dex 1.5 mg/kg,2.00
same,Interstitial Fibrosis,MRL/lpr mice; Dex 1.5 mg/kg,1.20
same,Interstitial Inflitration,MRL/lpr mice; Dex 1.5 mg/kg,1.60
same,Tubular Atrophy,MRL/lpr mice; Dex 1.5 mg/kg,1.20
same,Vasculitis,MRL/lpr mice; Dex 1.5 mg/kg,1.40
same,"A: Anti-dsDNA IgG, MEAN",anti-dsDNA antibodies; Dex 1.5 mpk 3 × wk,42.7
same,A: Anti-dsDNA IgG,anti-dsDNA antibodies; Dex 1.5 mpk 3 × wk,27.2 and 18.9 and 20.0 and 79.5 and 167.5 and 27.8 and 16.2 and 10.9 and 17.1
